Results reported in US8034940B2, “Modulators of glucocorticoid receptor, AP-1, and/or NF-κB activity and use thereof” (Bristol-Myers Squibb Company, priority 2006, dated 2011).

Tested on: AP-1 induced transcriptional activity
Assay: Cellular Transrepressional Assay (AP-1 luciferase reporter, PMA-activated A549 cells)
Type: cell-based
Conditions: for Emax: A549, 7 h, read-out: AP-1 Max % inh (Cellular Transrepression Assay); for Emax / AP-1 Max % inh (Cellular Transrepression Assay): maximum inhibition
Procedure, shortened: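 A549 cells stably carrying a 7× AP-1–luciferase reporter were stimulated with 10 ng/ml PMA with or without compound (0.1 nM–40 μM) for 7 h. Luminescence read 10 min after luciferase reagent; EC50 fitted from % decrease versus PMA-only signal.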

[1] = Homo sapiens, Cellular Transrepression Assay
[2] = Homo sapiens, A549, Cellular Transrepression Assay

Row | SMILES | EC50 [2] [nM] | EC50 (Cellular Transrepression Assay) [nM] | Emax [1] [%] | AP-1 Max % inh (Cellular Transrepression Assay) (Cellular Transrepression Assay) [%]
1 | COc1ccc(Cc2csc(NC(=O)C(C)(C)C3c4ccccc4Oc4cc(OC)ccc43)n2)cc1 (stereo not shown) [Example 49] | 40.3 |  | 68.8 | 
2 | COc1cccc2c1Oc1ccccc1C2C(C)(C)C(=O)Nc1nc(-c2ccc(F)c3ccccc23)cs1 (stereo not shown) [Example 82] | 126 |  | 72.6 | 
3 | O=C(CC1c2ccccc2Sc2ccccc21)Nc1nc(-c2cccc3ccccc23)cs1 [Example 28] |  |  | 43.7 | 
4 | CN(C)C(=O)c1ccc(-c2ccc3c(n2)Oc2ccccc2[C@@H]3C(C)(C)C(=O)Nc2nnc(C3CC3)s2)cc1 [Example 448] | 178 |  | 56.6 | 
5 | CC(C)(C(=O)Nc1nc(-c2ccc(F)c3ccccc23)cs1)C1c2ccccc2S(=O)(=O)c2ccccc21 [Example 11] | 882 |  | 68.5 | 
6 | CC(C)Oc1cnc(-c2ccc3c(c2)Oc2ccccc2[C@@H]3C(C)(C)C(=O)Nc2nncs2)nc1 [Example 107] | 833 |  | 22.8 | 
7 | CC(C)(C(=O)Nc1nncs1)C1c2ccccc2Oc2nc(NCc3ccccc3)ccc21 (stereo not shown) [Example 133] | 585 |  | 61.3 | 
8 | CC(C)(C(=O)Nc1nc(-c2cccc3ccccc23)cs1)C1c2ccccc2Cc2ccccc21 [Example 15] | 501 |  | 65.9 | 
9 | O=C(CC1c2ccccc2Oc2ccccc21)Nc1nc(-c2cccc3ccccc23)cs1 [Example 4] |  |  | 56.5 | 
10 | COc1ccc2c(c1)Oc1ccccc1[C@H]2C(C)(C)C(=O)Nc1nc(Cc2ccc(-c3ccncc3)cc2)cs1 [Example 54] | 13.1 |  | 71.4 | 
11 | Cc1cnc(NC(=O)C(C)(C)[C@H]2c3ccccc3Oc3cc(O)ccc32)s1 [Example 87] | 91.1 |  | 46 | 
12 | CC(C)(C(=O)Nc1nncs1)C1c2ccccc2Oc2cc(NC(=O)NC3CCCC3)ccc21 (stereo not shown) [Example 125] | 94.3 |  | 33.2 | 
13 | CC(C)(C(=O)Nc1nncs1)C1c2ccccc2Oc2nc(N)ccc21 (stereo not shown) [Example 159] | 479 |  | 30.3 | 
14 | Cc1noc(C)c1-c1ccc(Cc2csc(NC(=O)C(C)(C)C3c4ccccc4Oc4ccccc43)n2)cc1 [Example 43] | 13.4 |  | 71.9 | 
15 | CCCCOc1ccc(-c2ccc3c(n2)Oc2ccccc2C3C(C)(C)C(=O)Nc2nncs2)cc1 (stereo not shown) [Example 210] |  | 77.7 |  | 39.38
16 | COc1ccc(Cc2csc(NC(=O)C(C)(C)C3c4ccccc4Oc4cc(OC)ccc43)n2)cc1 (stereo not shown) [Example 53] |  | 78.5 |  | 72.00
17 | CC(C)(C(=O)Nc1nccs1)[C@H]1c2ccccc2Oc2cc(O)ccc21 [Example 89] | 18.1 |  | 68.3 | 
18 | CC(C)(C(=O)Nc1nncs1)[C@H]1c2ccccc2Oc2cc(OC(=O)NCc3ccco3)ccc21 [Example 372] | 28.3 |  | 52.4 | 

Row | SMILES | EC50 [2] [nM] | EC50 (Cellular Transrepression Assay) [nM] | Emax [1] [%] | AP-1 Max % inh (Cellular Transrepression Assay) (Cellular Transrepression Assay) [%]
19 | CC(C)(C(=O)Nc1nncs1)C1c2ccccc2Oc2cc(OC(=O)NCCCc3ccccc3)ccc21 (stereo not shown) [Example 380] |  | 101 |  | 53.58
20 | CC(C)(C(=O)Nc1nncs1)C1c2ccccc2Oc2ncccc21 (stereo not shown) [Example 65] | 345 |  | 32.2 | 
21 | COc1ccc(Cc2csc(NC(=O)C(C)(C)C3c4ccccc4Oc4c(OCCN(C)C)cccc43)n2)cc1 (stereo not shown) [Example 85] |  |  | 88.4 | 
22 | CN(C)C(=O)c1ccc(-c2ccc3c(n2)Oc2ccccc2C3C(C)(C)C(=O)Nc2ncns2)cc1 (stereo not shown) [Example 441] | 63.9 |  | 52.4 | 
23 | O=C(CC1c2ccccc2Oc2ccccc21)Nc1nc(-c2ccc(F)c3ccccc23)cs1 [Example 2] |  |  | 42.7 | 
24 | CC(C)(C(=O)Nc1nnc(C(=O)NC2CC2)s1)[C@H]1c2ccccc2Oc2nc(-c3ccc(C(=O)N4CCOCC4)cc3)ccc21 [Example 422] | 46.7 |  | 63.5 | 
25 | Cc1cnc(NC(=O)C(C)(C)[C@H]2c3ccccc3Oc3nc(-c4ccc(C(=O)N(C)C)cc4)ccc32)s1 [Example 444] | 44.2 |  | 57.5 | 
26 | CC(C)Oc1ccc(-c2ccc3c(n2)Oc2ccccc2[C@@H]3C(C)(C)C(=O)Nc2ncns2)cc1 [Example 458] | 53.2 |  | 35.2 | 
27 | CC(C)(C(=O)Nc1nccs1)C1c2ccccc2Oc2nc(N3CCOCC3)ccc21 (stereo not shown) [Example 154] | 236 |  | 46.2 | 
28 | Cc1csc(NC(=O)C(C)(C)[C@H]2c3ccccc3Oc3nc(-c4ccc(C(=O)N(C)C)cc4)ccc32)n1 [Example 443] | 134 |  | 51.7 | 
29 | CC(C)(C(=O)Nc1nc(-c2ccc(F)c3ccccc23)cs1)C1c2ccccc2Cc2ccccc21 [Example 17] | 335 |  | 68 | 
30 | COc1cccc2c1Oc1ccccc1C2C(C)(C)C(=O)Nc1nc(Cc2ccc(-c3ccncc3)cc2)cs1 (stereo not shown) [Example 83] | 15 |  | 69.6 | 
31 | CC(C)(C(=O)Nc1nccs1)C1c2ccccc2-c2ccccc21 [Example 18] | 542 |  | 37.6 | 
32 | CCc1cnc(-c2ccc3c(c2)Oc2ccccc2[C@H]3C(C)(C)C(=O)Nc2nncs2)nc1 [Example 110] | 183 |  | 35.7 | 
33 | CC(C)Oc1ccc(-c2ccc3c(n2)Oc2c(F)cccc2C3C(C)(C)C(=O)Nc2nncs2)cc1F (racemic) [Example 163] |  | 16.8 |  | 49.60
34 | O=C(CC1c2ccccc2Oc2ccccc21)Nc1nc(Cc2ccc(-c3ccncc3)cc2)cs1 [Example 1] | 157 |  | 69.3 | 
35 | Cc1nnc(NC(=O)C(C)(C)C2c3ccc(-c4ccc(C(=O)N(C)C)c(F)c4)nc3Oc3c(F)cccc32)s1 (racemic) [Example 167] |  | 36.6 |  | 57.94

Further lines, with some results ahead:

Row | EC50 [2] [nM] | EC50 (Cellular Transrepression Assay) [nM] | SMILES | Emax [1] [%] | AP-1 Max % inh (Cellular Transrepression Assay) (Cellular Transrepression Assay) [%]
36 | 51.9 |  | CC(C)C(O)c1ccc(-c2ccc3c(n2)Oc2ccccc2[C@@H]3C(C)(C)C(=O)Nc2nncs2)cc1 (stereo partly shown) [Example 240] | 61.7 | 
37 |  | 20.4 | CCN(C)C(=O)c1ccc(-c2ccc3c(n2)Oc2ccccc2[C@@H]3C(C)(C)C(=O)Nc2nncs2)cc1F [Example 336] |  | 55.80
38 |  | 37.9 | CCS(=O)(=O)c1ccc(-c2ccc3c(n2)Oc2ccccc2C3C(C)(C)C(=O)Nc2nncs2)cc1 (stereo not shown) [Example 227] |  | 42.50
39 | 69 |  | CC(C)(C(=O)Nc1nnc(CF)s1)[C@H]1c2ccccc2Oc2nc(-c3ccc(C(=O)N4CCCC4)c(F)c3)ccc21 [Example 431] | 41.8 | 
40 | 28.2 |  | Cc1nnc(NC(=O)C(C)(C)[C@H]2c3ccccc3Oc3nc(-c4ccc(C(=O)N5CCC(F)(F)C5)cc4)ccc32)s1 [Example 466] | 56.1 | 
41 |  | 34.6 | CC(C)(C(=O)Nc1nncs1)[C@H]1c2ccccc2Oc2nc(-c3ccc(C(=O)N4CCCC4)cc3)ccc21 [Example 252] |  | 60.94
42 | 35.4 |  | CC(C)(C(=O)Nc1ncns1)[C@H]1c2ccccc2Oc2nc(-c3ccc(C(=O)N4CCOCC4)c(F)c3)ccc21 [Example 468] | 53.3 | 
43 |  | 18.6 | CC(C)(C(=O)Nc1nncs1)[C@H]1c2ccccc2Oc2nc(-c3ccc(C(=O)N4CCOCC4)c(Cl)c3)ccc21 [Example 328] |  | 66.06
44 |  | 24.7 | CC(C)(C(=O)Nc1nncs1)[C@H]1c2ccccc2Oc2nc(-c3ccc(C(=O)N4CCCC4)c(F)c3)ccc21 [Example 333] |  | 52.71
45 | 41.9 |  | CN(C)C(=O)c1nnc(NC(=O)C(C)(C)[C@H]2c3ccccc3Oc3nc(-c4ccc(C(=O)N5CCCC5)c(F)c4)ccc32)s1 [Example 420] | 42.1 | 
46 |  | 534 | CC(C)N(C)C(=O)c1ccc(-c2ccc3c(n2)Oc2ccccc2C3C(C)(C)C(=O)Nc2nncs2)cc1 (stereo not shown) [Example 258] |  | 40.99
47 | 63.1 |  | CC(C)C1CCCN1C(=O)c1ccc(-c2ccc3c(n2)Oc2ccccc2[C@@H]3C(C)(C)C(=O)Nc2nncs2)cc1 (stereo partly shown) [Example 318] | 27.6 | 
48 | 11.1 |  | CC(=O)c1ccc(-c2ccc3c(n2)Oc2ccccc2[C@@H]3C(C)(C)C(=O)Nc2nncs2)s1 [Example 452] | 53.4 | 
49 |  | 42 | CC(=O)c1ccc(-c2ccc3c(n2)Oc2ccccc2C3C(C)(C)C(=O)Nc2nncs2)cc1F (stereo not shown) [Example 229] |  | 39.34
50 | 37.9 |  | CC(C)(C(=O)Nc1nncs1)[C@H]1c2ccccc2Oc2nc(-c3ccc(C(=O)N4CCC(F)(F)C4)c(F)c3)ccc21 [Example 335] | 56 | 
51 |  | 82.5 | CC(C)(C(=O)Nc1nncs1)C1c2ccccc2Oc2nc(-c3ccc(OC(F)(F)F)cc3)ccc21 (stereo not shown) [Example 173] |  | 44.82
52 |  | 12.2 | CC(C)Cc1ccc(-c2ccc3c(n2)Oc2ccccc2C3C(C)(C)C(=O)Nc2nncs2)cc1 (stereo not shown) [Example 208] |  | 54.08
53 |  | 8.5 | CCCc1ccc(-c2ccc3c(n2)Oc2ccccc2C3C(C)(C)C(=O)Nc2nncs2)cc1 (stereo not shown) [Example 205] |  | 57.72
54 | 4.74 |  | CC(C)(C(=O)Nc1nncs1)[C@H]1c2ccccc2Oc2nc(-c3ccc(C(=O)N4CCCCC4)cc3)ccc21 [Example 247] | 52.4 | 
55 |  | 14.3 | CC(C)Oc1ccc(-c2ccc3c(n2)Oc2ccccc2C3C(C)(C)C(=O)Nc2nncs2)cc1 (stereo not shown) [Example 209] |  | 50.21
56 | 267 |  | CC(C)(C(=O)Nc1nncs1)[C@H]1c2ccccc2Oc2nc(-c3ccc(C(=O)N4CCC[C@@H]4C(N)=O)cc3)ccc21 [Example 312] | 73.1 | 
57 | 24.6 |  | CC(C)(C(=O)Nc1nncs1)[C@H]1c2ccccc2Oc2nc(-c3ccc(CO)s3)ccc21 [Example 470] | 43 | 
58 |  | 109 | CC(C)(C(=O)Nc1nncs1)C1c2ccccc2Oc2nc(-c3ccc(C(F)(F)F)cc3)ccc21 (stereo not shown) [Example 182] |  | 33.12
